pIC50: −log10 of the molar value. Values joined by “and” are separate entries in the source; they are usually repeats but may differ in a detail not shown here. Equal entries are not always repeated. Where two headings read alike, the source gives them in different places.
Columns and labels:
GST-Pin1 = GST-Pin1 (Homo sapiens, UniProt Q13526); experiment: Pin1 substrate activity assay (chymotrypsin-coupled PPIase assay); format: biochemical; conditions: pre-incubation 12 hours at 4° C.
Method: Inhibition of Pin1 isomerase activity was determined using the chymotrypsin-coupled PPIase assay, using GST-Pin1 and Suc-Ala-pSer-Pro-Phe-pNA (SEQ ID NO: 2) peptide substrate ([…]), according to procedures described by Yaffe [Science 1997, 278:1957-1960]. GST-Pin1 was pre-incubated with the indicated concentrations of compound for 12 hours at 4° C. in buffer containing 35 mM HEPES (pH 7.8), 0.2 mM DTT, and 0.1 mg/ml BSA (bovine serum albumin). Immediately before the assay was started, chymotrypsin (final concentration of 6 mg/ml), followed by the peptide substrate (Suc-Ala-pSer-Pro-Phe-pNA (SEQ ID NO: 2) peptide substrate, final concentration […]) was added. The apparent Ki value (under the tested conditions) obtained from the PPIase assay was derived from the Cheng-Prusoff equation: […]
wherein Km is the Michaelis constant for the used substrate, S is the initial concentration of the substrate in the assay, and IC50 is the half-minimal inhibitory concentration of the inhibitor.
Covalent labeling of Pin1 was confirmed to translate into enzyme inhibition via a fluorescence polarization (FP) competition assay using a FITC-labeled substrate mimetic peptide inhibitor, as well as a chymotrypsin-coupled PPIase assay, using procedures described in Wei et al. [Nat Med 2015, 21:457-466].

[1] = Pharmacokinetics, oral administration; format: in vivo, Male C57Bl/6J mice; conditions: for AUC(0-inf): read-out: AUCINF obs. (converted)
Method: Male C57Bl/6J mice received Pin1-3 intravenously (as a 0.2 mg/ml solution in 5/5/90 NMP/Solutol/saline) or orally (as a 1 mg/ml solution in 5/5/90 NMP/Solutol/saline). The intravenous dosage was 2 mg/kg and the oral dosage was 10 mg/kg.

[2] = system: 8988T pancreatic adenocarcinoma cells; experiment: Prolonged-treatment cell growth, wild-type 8988T; format: cell-based; conditions: 1 μM, 6-8 days
Method: (§1) The ability of Pin1-3 treatment to induce more pronounced anti-proliferative effects after prolonged treatment (6-8 days) was then assessed. In order to ensure that target engagement was maintained for the duration of the experiment, Pin1-3 was replenished in fresh media every 48 hours.
(§2) The effect of Pin1-binding compounds on 8988T pancreatic adenocarcinoma cells was assessed by incubating cells with 1 μM Pin1-3, and evaluating cell growth relative to cells incubated with vehicle (DMSO) alone. In order to confirm that the effect of Pin1-3 is mediated by Pin1, the experiment was repeated using Pin1 knockout cells.

[3] = system: Pin1-knockout 8988T pancreatic cancer cells; experiment: Prolonged-treatment cell growth, Pin1-knockout 8988T; format: cell-based; conditions: 1 μM
Method: as §1, §2

[4] = system: Kuramochi ovarian carcinoma cells; experiment: Prolonged-treatment cell growth, Kuramochi; format: cell-based; conditions: 1 or 2.5 μM
Method: as §1

[5] = system: cysteine residues on a proteome-wide scale, PATU-8988T cells; experiment: CITe-Id chemoproteomic selectivity experiment; format: cell-based; conditions: PATU-8988T cells, 100, 500 or 1000 nM for 5 hours
Method: In order to profile the selectivity of Pin1-3, a Covalent Inhibitor Target-site Identification (CITe-Id) experiment [Browne et al., […] 2019, 141, 191-203] was performed, as depicted in FIG. 28.
This chemoproteomic platform enables the identification and quantification of the dose-dependent binding of covalent inhibitors to cysteine residues on a proteome-wide scale. In this competition experiment, live PATU-8988T cells were incubated with Pin1-3 (100, 500 or 1000 nM) for 5 hours, followed by cell lysis and co-incubation with Pin1-3-DTB (2 μM) for 18 hours. Following trypsin digest and avidin enrichment, the DTB-modified peptides were analyzed by shotgun LC-MS/MS.

[6] = system: Myc transcriptional output in Mino B cells; experiment: RNA sequencing and gene set enrichment; format: cell-based, human; conditions: 1 μM, 6 hours
Method: Mino cells (acquired from the ATCC) were grown at 37° C. in a 5% CO2 humidified incubator and cultured in RPMI-1640 (Biological Industries), supplemented with 15% fetal bovine serum (Biological Industries) and 1% pen-strep solution (Biological Industries). 11×10^6 cells were incubated with 1 μM Pin1-3 (0.02% DMSO) or with 0.02% DMSO in triplicates for 6 hours. Total RNA was isolated with RNeasy™ kit (Qiagen). RNA libraries were prepared from 2 μg total RNA using SENSE™ mRNA-Seq library prep kit V2 (Lexogen). Total RNA and library quality was analyzed using Qubit™ fluorometric and TapeStation™ analysis (Agilent). Samples were sequenced using NextSeg™ 500/550 High Output Kit v2.5 (Illumina) on NextSeg™ 550.
RNA-seq reads were aligned to the human genome (hg19 assembly) using STAR [Dobin et al., Bioinformatics 2013, 29:15-21] and gene expression was determined using RSEM [L1 & Dewey, BMC Bioinformatics 2011, 12:323] and RefSeq annotations. Differential expression was computed using DESeq2 [Love et al., Genome Biol 2014, 15:550] with default parameters.
In order to test whether Pin1-3 affects Myc transcriptional output, Mino B cells were treated with Pin1-3 (1 μM) for 6 hours (in triplicates) or vehicle (DMSO), followed by a global RNA sequencing analysis to detect differentially expressed genes as the result of this perturbation. […]

[7] = male, C57Bl/6J, mouse, in vivo, po, 10 mg/kg, oral 10 mg/kg, Avg. of 3 mice
[8] = male, C57Bl/6J, mouse, in vivo, po, 10 mg/kg, oral 10 mg/kg, individual mice No. 1-3
[9] = oral 10 mg/kg, individual mice No. 1-3, 10 mg/kg

Sequence of GST-Pin1 (Q13526 whole entry): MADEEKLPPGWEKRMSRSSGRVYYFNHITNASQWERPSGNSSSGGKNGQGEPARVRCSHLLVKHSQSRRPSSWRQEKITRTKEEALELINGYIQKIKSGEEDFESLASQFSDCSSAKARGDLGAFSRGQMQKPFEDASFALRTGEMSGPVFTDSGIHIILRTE

In the case of `CC(C)(C)CN(C(=O)CCl)C1CCS(=O)(=O)C1` (stereo not drawn) [Pin1-3, 2-chloro-N-(sulfolan-3-yl)-N-neopentylacetamide], the pIC50 (GST-Pin1) was 6.99, the AUC(0-t) [1, 7] was 9210 ng·h/mL and 32.8 µM·h and the Tmax [1, 7] was 25.2 min. For the same compound, the half-life [1, 7] was 49.2 min, the AUC(0-inf) [1, 7] was 9230 ng·h/mL and the Cmax ([1]; male, C57Bl/6J, mouse, in vivo, po, 10 mg/kg, oral 10 mg/kg, Avg. of 3 mice, read-out: Cmax) was 11.5 µM and 3220 ng/mL. For the same compound, the AUC(0-t) [1, 8] was 9590 ng·h/mL and 34.1 µM·h, the Tmax [1, 8] was 15 min and the half-life [1, 8] was 38.4 min. The AUC(0-inf) [1, 8] was 9600 ng·h/mL, the Cmax ([1]; male, C57Bl/6J, mouse, in vivo, po, 10 mg/kg, oral 10 mg/kg, individual mice No. 1-3, read-out: Cmax) was 4050 ng/mL and 14.4 µM and the bioavailability ([1]; male, C57Bl/6J, mouse, in vivo, oral 10 mg/kg vs intravenous 2 mg/kg, Avg., read-out: F % (oral bioavailability)) was 30.4%. For the same compound, the AUC % extrap. ([1]; oral 10 mg/kg, Avg. of 3 mice) was 0.24%, the Cl obs. ([1]; oral 10 mg/kg, Avg. of 3 mice) was 18.15 mL/min/kg and the AUC % extrap. [1, 9] was 0.03% and 0.32% and 0.38%. For the same compound, the AUCINF obs. [1, 9] was 498172 ng·min/mL and 587646 ng·min/mL, the AUClast [1, 9] was 496559 min*ng/ml and 29.4 hr*μM and 585438 min*ng/ml and 34.7 hr*μM and the Cl obs. [1, 9] was 17.37 mL/min/kg and 20.07 mL/min/kg and 17.02 mL/min/kg. The Cmax [1, 9] was 2420 ng/mL and 3200 ng/mL, the T1/2 [1, 9] was 54.6 min and 55.2 min and the Cmax ([1]; oral 10 mg/kg, individual mice No. 1-3, 10 mg/kg, read-out: Cmax) was 8.61 µM and 11.4 µM. For the same compound, the “Cell viability / growth” value [2] was “reduced pancreatic cancer cell viability”, the “Cell viability / growth” value [3] was “no considerable effect” and the Cell growth [4] was “long-term inhibition”. The “Dose-dependent competition among 162 cysteine residues labeled by Pin1-3-DTB” value [5] was “only Pin1 Cys113 exhibited dose-dependent competition”, the “Myc transcriptional signature (Enrichr, ENCODE TF ChIP-seq sets)” value [6] was “significant downregulation of Myc's transcriptional signature” and the “Number of genes significantly downregulated” value [6] was 206 genes.
